Patent publication US20110152267A1, “Compositions and Methods for Treating Hyperproliferative Disorders” (Texas Tech University System, priority 2009, published 2011)

Key:
Type in all cases: cell-based, human
[1] = tested on: SJ-G2 Glioblastoma cell line; experiment: DIMSCAN cytotoxicity, fenretinide + L-threo-sphinganines 3:1 (Example B8); details: 96 h
Description: (§1) Cytotoxicity Assay—Once again, cytotoxicity is determined using the DIMSCAN assay system (R. Proffitt et al., Cytometry 24, 204-213 (1996); T. Frgala et al., Mol Cancer Ther. 6:886-97, 2007). The system employs digital imaging microscopy to quantify viable cells, which selectively accumulate fluorescein diacetate to become brightly fluorescent. The system is capable of measuring cytotoxicity over a 4-5 log dynamic range by quenching the residual fluorescence of dead and dying cells with eosin Y and quantifying the total fluorescence of viable cells using digital thresholding. Measured fluorescence is directly proportionate to the number of viable cells. A comparison of the total fluorescence of a drug-treated cell population to the fluorescence of a similar number of untreated cells yields a survival fraction. In brief, 2000 to 10,000 cells/well (depending on size and growth rates) are replicate plated into 60 wells of a 96-well tissue culture plate in 0.1 mL of whole medium and allowed to attach overnight. Drug(s) are then added in 0.05 mL of whole medium to the final concentrations indicated. Drugs (fenretinide, and various chain length L-threo-sphinganines) were tested both as single agents and in a 3:1 ratio of fenretinide:sphinganine. C18-L-threo-sphinganine, or “safingol,” was also tested and results shown for reference. There are 12 wells treated per drug concentration. Twelve wells receive drug vehicle-only to the appropriate final concentration and serve as controls for the plate. Cells are incubated for 96 hours at 37° C. in ambient air with 5% CO2. Fluorescein diacetate is then added to each well in 0.05 mL media to a final concentration of 8 microgram/mL. Cells are incubated for a further 15 minutes at 37° C. and 0.03 mL of 0.5% eosin Y is added to each well. Total fluorescence of viable cells is then measured by digital imaging microscopy. Results were graphed as the ratio of the fluoresecence of drug-treated wells to non-drug treated control wells (i.e., Survival Fraction). All tests were performed at least twice. Representative results are shown.
(§2) The Combination Index (CI) is a term to describe mathematical modeling of the pharmacologic effects on cytotoxicity (cell death) of two drugs in combination based. Cytotoxic “synergy” is defined as a cell death affect which is greater than would be expected from a simple product of the single agent cytotoxicities alone (i.e. an “additive” effect). By Chou-Talalay analysis, a CI<0.9 on a Fraction Affected (“Fa”, i.e. fraction of cells killed) indicates synergy, with smaller numbers indicating greater synergy; a CI of 0.9-1.1 signifies an additive or near-additive effect; and a CI>1.1 means the drug combination is antagonistic.
Fenretinide and L-threo-sphinganines tested in human Glioblastoma (brain cancer) cell line, SJ-G2.

[2] = tested on: OVCAR-8 ovarian adenocarcinoma cell line; experiment: DIMSCAN cytotoxicity, fenretinide + L-threo-sphinganines 3:1 (Example B15); parameters: key to CI (Combination Index): Chou-Talalay CI: <0.9 synergy, 0.9-1.1 additive, >1.1 antagonism; details: 96 h
Description: as §1, §2
Fenretinide and L-threo-sphinganines tested in human ovarian adenocarcinoma (ovarian cancer) cell line, OVCAR-8.

[3] = tested on: HT-29 colorectal adenocarcinoma cell line; experiment: DIMSCAN cytotoxicity, fenretinide + L-threo-sphinganines 3:1 (Example B10); details: 96 h
Description: as §1, §2
Fenretinide and L-threo-sphinganines tested in human colorectal adenocarcinoma (colon cancer) cell line, HT-29.

[4] = tested on: U-266 Multiple Myeloma cell line; experiment: DIMSCAN cytotoxicity, fenretinide + L-threo-sphinganines 3:1 (Example B3); details: 96 h
Description: as §1, §2
Fenretinide and L-threo-sphinganines tested in human Multiple Myeloma (a cancer of the blood and bone marrow) cell line, U-266.

[5] = tested on: PANC-1 pancreatic adenocarcinoma cell line; experiment: DIMSCAN cytotoxicity, fenretinide + L-threo-sphinganines 3:1 (Example B18)
Description: as §1, §2
Fenretinide and L-threo-sphinganines tested in human pancreatic adenocarcinoma (pancreas cancer) cell line, PANC-1.

[6] = tested on: A-172 Glioblastoma multiforme cell line; experiment: DIMSCAN cytotoxicity, fenretinide + L-threo-sphinganines 3:1 (Example B4); parameters: key to CI (Combination Index): Chou-Talalay CI: <0.9 synergy, 0.9-1.1 additive, >1.1 antagonism; details: 96 h
Description: as §1, §2
Fenretinide and L-threo-sphinganines tested in human Glioblastoma multiforme (brain cancer) cell line, A-172.

[7] = tested on: SJ-GBM2 Glioblastoma multiforme cell line; experiment: DIMSCAN cytotoxicity, fenretinide + L-threo-sphinganines 3:1 (Example B7); parameters: key to CI (Combination Index): Chou-Talalay CI: <0.9 synergy, 0.9-1.1 additive, >1.1 antagonism; details: 96 h
Description: as §1, §2
Fenretinide and L-threo-sphinganines tested in human Glioblastoma multiforme (brain cancer) cell line, SJ-GBM2.

[8] = tested on: T98G Glioblastoma multiforme cell line; experiment: DIMSCAN cytotoxicity, fenretinide + L-threo-sphinganines 3:1 (Example B6); details: 96 h
Description: as §1, §2
Fenretinide and L-threo-sphinganines tested in human Glioblastoma multiforme (brain cancer) cell line, T98G.

[9] = 4-HPR 1.5 μM + L-threo-sphinganine 0.5 μM
[10] = 4-HPR 3 μM + L-threo-sphinganine 1 μM
[11] = 4-HPR 6 μM + L-threo-sphinganine 2 μM
[12] = 4-HPR 9 μM + L-threo-sphinganine 3 μM

## CCCCCCCCCCCCCC[C@H](O)[C@@H](N)CO [C17, (2S,3S)-2-amino-1,3-heptadecanediol]
[1]; [9]
  CI (Combination Index): 0.6
  Fa (fraction affected): 0.462
[1]; [10]
  CI (Combination Index): 0.4
  Fa (fraction affected): 0.874
[1]; [11]
  CI (Combination Index): 0.6
  Fa (fraction affected): 0.928
[1]; [12]
  CI (Combination Index): 0.8
  Fa (fraction affected): 0.941
[2]; [9]
  CI (Combination Index): 0.2
  Fa (fraction affected): 0.467
[2]; [10]
  CI (Combination Index): 0.4
  Fa (fraction affected): 0.519
[2]; [11]
  CI (Combination Index): 0.5
  Fa (fraction affected): 0.676
[2]; [12]
  CI (Combination Index): 0.4
  Fa (fraction affected): 0.903
[3]; [9]
  CI (Combination Index): 1.1
  Fa (fraction affected): 0.112
[3]; [10]
  CI (Combination Index): 0.8
  Fa (fraction affected): 0.661
[3]; [11]
  CI (Combination Index): 0.6
  Fa (fraction affected): 0.974
[3]; [12]
  CI (Combination Index): 0.5
  Fa (fraction affected): 0.993
[4]; [9]
  CI (Combination Index): 1.3
  Fa (fraction affected): 0.134
[4]; [10]
  CI (Combination Index): 1.5
  Fa (fraction affected): 0.35
[4]; [11]
  CI (Combination Index): 0.9
  Fa (fraction affected): 0.901
[4]; [12]
  CI (Combination Index): 0.4
  Fa (fraction affected): 0.991
[5]; [9]
  CI: 1.5
  Fa: 0.171
[5]; [10]
  CI: 1.7
  Fa: 0.311
[5]; [11]
  CI: 0.9
  Fa: 0.714
[5]; [12]
  CI: 0.1
  Fa: 0.990
[6]; [9]
  CI (Combination Index): 1.4
  Fa (fraction affected): 0.232
[6]; [10]
  CI (Combination Index): 1.4
  Fa (fraction affected): 0.529
[6]; [11]
  CI (Combination Index): 0.2
  Fa (fraction affected): 0.996
[6]; [12]
  CI (Combination Index): >0.1
  Fa (fraction affected): 1.000
[7]; [9]
  CI (Combination Index): 0.5
  Fa (fraction affected): 0.188
[7]; [10]
  CI (Combination Index): 0.5
  Fa (fraction affected): 0.796
[7]; [11]
  CI (Combination Index): 0.7
  Fa (fraction affected): 0.962
[7]; [12]
  CI (Combination Index): 0.7
  Fa (fraction affected): 0.998
[8]; [9]
  CI (Combination Index): 1.7
  Fa (fraction affected): 0.447
[8]; [10]
  CI (Combination Index): 0.3
  Fa (fraction affected): 0.887
[8]; [11]
  CI (Combination Index): 0.3
  Fa (fraction affected): 0.944
[8]; [12]
  CI (Combination Index): 0.2
  Fa (fraction affected): 0.980

## CCCCCCCCCCCCCCC[C@H](O)[C@@H](N)CO [C18, (2S,3S)-2-amino-1,3-octadecanediol, reference compound]
[1]; [9]
  CI (Combination Index): 0.7
  Fa (fraction affected): 0.437
[1]; [10]
  CI (Combination Index): 0.7
  Fa (fraction affected): 0.728
[1]; [11]
  CI (Combination Index): 0.5
  Fa (fraction affected): 0.950
[1]; [12]
  CI (Combination Index): 0.6
  Fa (fraction affected): 0.958
[2]; [9]
  CI (Combination Index): 1.5
  Fa (fraction affected): 0.122
[2]; [10]
  CI (Combination Index): 1.5
  Fa (fraction affected): 0.202
[2]; [11]
  CI (Combination Index): 0.7
  Fa (fraction affected): 0.536
[2]; [12]
  CI (Combination Index): 0.5
  Fa (fraction affected): 0.761
[3]; [9]
  CI (Combination Index): 0.9
  Fa (fraction affected): 0.243
[3]; [10]
  CI (Combination Index): 0.7
  Fa (fraction affected): 0.756
[3]; [11]
  CI (Combination Index): 0.5
  Fa (fraction affected): 0.983
[3]; [12]
  CI (Combination Index): 0.3
  Fa (fraction affected): 0.999
[4]; [9]
  CI (Combination Index): 1.4
  Fa (fraction affected): 0.048
[4]; [10]
  CI (Combination Index): 1.5
  Fa (fraction affected): 0.268
[4]; [11]
  CI (Combination Index): 1.3
  Fa (fraction affected): 0.883
[4]; [12]
  CI (Combination Index): 0.8
  Fa (fraction affected): 0.999
[5]; [9]
  CI: 2.5
  Fa: 0.136
[5]; [10]
  CI: 2.1
  Fa: 0.336
[5]; [11]
  CI: 1.4
  Fa: 0.620
[5]; [12]
  CI: 1.5
  Fa: 0.700
[6]; [9]
  CI (Combination Index): 1.3
  Fa (fraction affected): 0.233
[6]; [10]
  CI (Combination Index): 0.5
  Fa (fraction affected): 0.803
[6]; [11]
  CI (Combination Index): 0.3
  Fa (fraction affected): 0.956
[6]; [12]
  CI (Combination Index): 0.1
  Fa (fraction affected): 0.993
[7]; [9]
  CI (Combination Index): >>1
  Fa (fraction affected): 0.001
[7]; [10]
  CI (Combination Index): 0.6
  Fa (fraction affected): 0.712
[7]; [11]
  CI (Combination Index): 0.6
  Fa (fraction affected): 0.987
[7]; [12]
  CI (Combination Index): 0.7
  Fa (fraction affected): 0.999
[8]; [9]
  CI (Combination Index): 0.786
  Fa (fraction affected): 0.657
[8]; [10]
  CI (Combination Index): 1.316
  Fa (fraction affected): 0.701
[8]; [11]
  CI (Combination Index): 0.767
  Fa (fraction affected): 0.906
[8]; [12]
  CI (Combination Index): 0.023
  Fa (fraction affected): 0.999
